Data set [1] concerns the target cAMP and cAMP-inhibited cGMP 3',5'-cyclic phosphodiesterase 10A (Homo sapiens, UniProt Q9Y233). In words: Inhibition of human MOLT4 cell-derived PDE10A using [3H]cAMP as substrate measured after 2 hrs in presence of rolipram/milrinone by topcount method.
Data set [2] is filed under the species Mus musculus. In words: Inhibition of Balb/c mouse liver PDE1 at 30 ug/ml using [3H]cAMP as substrate measured after 2 hrs in presence of calmodulin by topcount method relative to control.
The species named for data set [3] is Mus musculus. Nature of the data set: Inhibition of Balb/c mouse liver PDE2 at 30 ug/ml using [3H]cAMP as substrate measured after 2 hrs in presence of cGMP by topcount method relative to control.
The species named for data set [4] is Mus musculus. Nature of the data set: Inhibition of Balb/c mouse liver PDE4 at 30 ug/ml using [3H]cAMP as substrate measured after 2 hrs by topcount method relative to control.
The species entered for data set [5] is Mus musculus. Nature of the data set: Inhibition of Balb/c mouse lung PDE5 at 30 ug/ml using [3H]cGMP as substrate measured after 2 hrs by topcount method relative to control.
The target in data set [6] is T1, Phosphodiesterase 7 (Homo sapiens, UniProt Q13946+Q9NP56). Nature of the data set: Inhibition of human MOLT4 cell-derived PDE7 at 30 ug/ml using [3H]cAMP as substrate measured after 2 hrs in presence of rolipram/milrinone by topcount method relative to control. In kind it is protein assay.
T1 sequence (Q13946 whole entry, looked up): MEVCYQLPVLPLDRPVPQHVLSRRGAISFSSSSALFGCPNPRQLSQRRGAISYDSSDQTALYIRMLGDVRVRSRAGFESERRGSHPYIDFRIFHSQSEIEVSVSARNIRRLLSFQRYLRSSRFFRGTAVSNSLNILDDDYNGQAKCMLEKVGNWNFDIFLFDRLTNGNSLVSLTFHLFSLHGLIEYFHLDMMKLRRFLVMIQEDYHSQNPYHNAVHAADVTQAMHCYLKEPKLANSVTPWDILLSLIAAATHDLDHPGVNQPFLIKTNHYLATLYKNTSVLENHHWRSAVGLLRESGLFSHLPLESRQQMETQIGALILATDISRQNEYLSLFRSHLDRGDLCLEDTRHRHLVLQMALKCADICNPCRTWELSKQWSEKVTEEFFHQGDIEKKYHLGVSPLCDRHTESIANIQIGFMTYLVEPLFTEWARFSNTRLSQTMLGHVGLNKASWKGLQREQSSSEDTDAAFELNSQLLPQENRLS
T1 sequence (Q9NP56 whole entry, looked up): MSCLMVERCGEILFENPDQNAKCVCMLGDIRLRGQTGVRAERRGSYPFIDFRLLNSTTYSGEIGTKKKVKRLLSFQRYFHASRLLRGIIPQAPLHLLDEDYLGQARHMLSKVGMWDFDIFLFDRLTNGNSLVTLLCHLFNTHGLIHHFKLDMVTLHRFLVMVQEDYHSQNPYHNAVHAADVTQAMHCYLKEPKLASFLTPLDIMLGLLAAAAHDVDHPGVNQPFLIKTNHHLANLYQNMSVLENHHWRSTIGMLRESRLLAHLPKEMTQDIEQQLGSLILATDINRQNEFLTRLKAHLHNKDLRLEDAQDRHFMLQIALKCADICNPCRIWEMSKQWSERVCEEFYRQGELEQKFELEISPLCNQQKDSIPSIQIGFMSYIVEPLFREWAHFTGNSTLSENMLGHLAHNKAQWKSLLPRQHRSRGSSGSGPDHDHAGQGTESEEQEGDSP
A further data set has as its target hERG (KCNH2) (Homo sapiens, UniProt Q12809). In words: Inhibition of human ERG at 10 uM relative to control.
The next data set addresses CYP2D6 (Homo sapiens, UniProt P10635). Nature of the data set: Inhibition of CYP2D6 (unknown origin) at 10 uM relative to control. It counts as ADME.
The next data set addresses CYP3A4 (Homo sapiens, UniProt P08684). In words: Inhibition of CYP3A4 (unknown origin) at 10 uM relative to control. It counts as ADME.
The nature of data set [7]: Inhibition of Balb/c mouse liver PDE1 using [3H]cAMP as substrate measured after 2 hrs in presence of calmodulin by topcount method.
Data set [8] is described as follows: Inhibition of Balb/c mouse liver PDE2 using [3H]cAMP as substrate measured after 2 hrs in presence of cGMP by topcount method.
Data set [9] can be described thus: Inhibition of Balb/c mouse liver PDE4 using [3H]cAMP as substrate measured after 2 hrs by topcount method.
The nature of data set [10]: Inhibition of Balb/c mouse lung PDE5 using [3H]cGMP as substrate measured after 2 hrs by topcount method.
The target in data set [11] is T1, Phosphodiesterase 7. Nature of the data set: Inhibition of human MOLT4 cell-derived PDE7 using [3H]cAMP as substrate measured after 2 hrs in presence of rolipram/milrinone by topcount method. It counts as protein assay.
The nature of data set [12]: Selectivity ratio of IC50 for Balb/c mouse liver PDE1 to IC50 for human MOLT4 cell-derived PDE10A.
A short description of data set [13]: Selectivity ratio of IC50 for Balb/c mouse liver PDE2 to IC50 for human MOLT4 cell-derived PDE10A.
Data set [14] is described as follows: Selectivity ratio of IC50 for Balb/c mouse liver PDE4 to IC50 for human MOLT4 cell-derived PDE10A.
Data set [15] is described as follows: Selectivity ratio of IC50 for Balb/c mouse lung PDE5 to IC50 for human MOLT4 cell-derived PDE10A.
For the next data set, the species on record is Homo sapiens. In words: Selectivity ratio of IC50 for human MOLT4 cell-derived PDE7 to IC50 for human MOLT4 cell-derived PDE10A.

SMILES strings stand for the structures. pIC50: −log10 of the molar value. Bounds are passed on as bounds.

The record followed here is ChEMBL document CHEMBL4339202, “Benzothiophene derivatives as phosphodiesterase 10A (PDE10A) inhibitors: Hit-to-lead studies” (Bioorg Med Chem Lett, 2019).

Sequence of cAMP and cAMP-inhibited cGMP 3',5'-cyclic phosphodiesterase 10A (Q9Y233 whole entry): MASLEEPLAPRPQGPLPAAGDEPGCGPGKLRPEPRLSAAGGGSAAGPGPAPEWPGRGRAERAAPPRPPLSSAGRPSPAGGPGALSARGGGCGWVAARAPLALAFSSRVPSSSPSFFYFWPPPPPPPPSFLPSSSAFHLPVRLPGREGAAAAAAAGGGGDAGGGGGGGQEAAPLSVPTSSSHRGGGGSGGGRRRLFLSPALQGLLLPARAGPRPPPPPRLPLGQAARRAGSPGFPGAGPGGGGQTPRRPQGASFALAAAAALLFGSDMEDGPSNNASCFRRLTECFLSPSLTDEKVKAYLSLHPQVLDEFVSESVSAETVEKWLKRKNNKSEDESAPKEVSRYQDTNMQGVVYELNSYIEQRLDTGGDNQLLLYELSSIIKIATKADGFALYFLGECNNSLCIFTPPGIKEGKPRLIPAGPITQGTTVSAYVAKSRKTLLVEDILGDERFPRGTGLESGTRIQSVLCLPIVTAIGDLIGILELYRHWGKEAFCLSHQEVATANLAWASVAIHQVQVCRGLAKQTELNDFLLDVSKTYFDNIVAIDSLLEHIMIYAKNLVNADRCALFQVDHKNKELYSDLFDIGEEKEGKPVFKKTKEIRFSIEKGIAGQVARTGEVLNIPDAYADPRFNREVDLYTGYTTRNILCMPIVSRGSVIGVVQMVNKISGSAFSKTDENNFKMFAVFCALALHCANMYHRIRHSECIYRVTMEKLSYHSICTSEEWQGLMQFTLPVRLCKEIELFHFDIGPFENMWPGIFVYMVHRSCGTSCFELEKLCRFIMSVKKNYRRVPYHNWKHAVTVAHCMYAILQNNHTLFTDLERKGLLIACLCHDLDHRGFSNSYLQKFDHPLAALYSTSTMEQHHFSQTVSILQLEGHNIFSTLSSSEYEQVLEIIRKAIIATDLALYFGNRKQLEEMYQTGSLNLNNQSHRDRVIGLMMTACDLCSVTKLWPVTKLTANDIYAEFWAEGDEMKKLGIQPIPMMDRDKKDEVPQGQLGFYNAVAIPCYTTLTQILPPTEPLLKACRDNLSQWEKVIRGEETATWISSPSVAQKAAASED
Sequence of hERG (KCNH2) (Q12809 whole entry): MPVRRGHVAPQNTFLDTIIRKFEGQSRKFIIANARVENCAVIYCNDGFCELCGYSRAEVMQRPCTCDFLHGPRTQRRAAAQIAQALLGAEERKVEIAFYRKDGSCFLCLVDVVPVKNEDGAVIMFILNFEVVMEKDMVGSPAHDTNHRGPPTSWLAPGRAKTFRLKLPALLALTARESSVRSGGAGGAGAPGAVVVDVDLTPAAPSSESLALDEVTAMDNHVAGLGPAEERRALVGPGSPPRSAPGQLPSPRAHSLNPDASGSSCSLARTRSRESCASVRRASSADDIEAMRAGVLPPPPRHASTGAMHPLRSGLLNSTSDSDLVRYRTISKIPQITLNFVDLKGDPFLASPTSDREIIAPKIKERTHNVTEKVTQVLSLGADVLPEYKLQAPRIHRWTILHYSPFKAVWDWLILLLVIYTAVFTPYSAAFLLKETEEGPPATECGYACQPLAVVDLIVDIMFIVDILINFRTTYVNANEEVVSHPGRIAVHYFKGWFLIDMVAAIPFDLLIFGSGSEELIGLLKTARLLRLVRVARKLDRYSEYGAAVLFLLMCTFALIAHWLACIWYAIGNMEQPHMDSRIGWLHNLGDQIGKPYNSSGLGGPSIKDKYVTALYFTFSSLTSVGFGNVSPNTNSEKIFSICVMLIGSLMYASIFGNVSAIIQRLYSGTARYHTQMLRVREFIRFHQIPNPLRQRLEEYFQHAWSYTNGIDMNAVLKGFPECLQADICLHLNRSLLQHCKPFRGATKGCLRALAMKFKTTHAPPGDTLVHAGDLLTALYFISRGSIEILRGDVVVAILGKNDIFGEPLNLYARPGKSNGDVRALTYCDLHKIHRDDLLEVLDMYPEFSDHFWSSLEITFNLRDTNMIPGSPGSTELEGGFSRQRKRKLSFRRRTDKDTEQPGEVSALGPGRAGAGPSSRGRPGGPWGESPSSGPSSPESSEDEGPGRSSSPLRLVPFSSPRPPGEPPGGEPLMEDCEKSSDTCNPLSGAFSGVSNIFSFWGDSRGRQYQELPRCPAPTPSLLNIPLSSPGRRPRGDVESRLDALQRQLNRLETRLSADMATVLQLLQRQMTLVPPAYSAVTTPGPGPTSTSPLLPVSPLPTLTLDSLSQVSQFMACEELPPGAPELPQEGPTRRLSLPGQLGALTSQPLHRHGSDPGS
Sequence of CYP2D6 (P10635 whole entry): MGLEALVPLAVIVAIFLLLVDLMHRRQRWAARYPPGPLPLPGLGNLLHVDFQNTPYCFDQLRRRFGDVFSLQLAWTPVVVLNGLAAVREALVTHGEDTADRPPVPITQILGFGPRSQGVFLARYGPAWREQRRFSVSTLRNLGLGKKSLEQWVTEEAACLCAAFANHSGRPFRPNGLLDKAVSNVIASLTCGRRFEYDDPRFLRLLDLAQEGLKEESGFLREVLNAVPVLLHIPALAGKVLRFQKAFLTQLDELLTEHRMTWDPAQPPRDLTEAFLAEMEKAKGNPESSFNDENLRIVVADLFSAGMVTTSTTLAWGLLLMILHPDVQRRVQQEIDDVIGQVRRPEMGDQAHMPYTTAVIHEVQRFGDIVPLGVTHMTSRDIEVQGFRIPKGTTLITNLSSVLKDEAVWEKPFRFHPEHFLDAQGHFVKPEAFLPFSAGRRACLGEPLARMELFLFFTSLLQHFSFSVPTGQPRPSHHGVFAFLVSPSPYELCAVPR
Sequence of CYP3A4 (P08684 whole entry): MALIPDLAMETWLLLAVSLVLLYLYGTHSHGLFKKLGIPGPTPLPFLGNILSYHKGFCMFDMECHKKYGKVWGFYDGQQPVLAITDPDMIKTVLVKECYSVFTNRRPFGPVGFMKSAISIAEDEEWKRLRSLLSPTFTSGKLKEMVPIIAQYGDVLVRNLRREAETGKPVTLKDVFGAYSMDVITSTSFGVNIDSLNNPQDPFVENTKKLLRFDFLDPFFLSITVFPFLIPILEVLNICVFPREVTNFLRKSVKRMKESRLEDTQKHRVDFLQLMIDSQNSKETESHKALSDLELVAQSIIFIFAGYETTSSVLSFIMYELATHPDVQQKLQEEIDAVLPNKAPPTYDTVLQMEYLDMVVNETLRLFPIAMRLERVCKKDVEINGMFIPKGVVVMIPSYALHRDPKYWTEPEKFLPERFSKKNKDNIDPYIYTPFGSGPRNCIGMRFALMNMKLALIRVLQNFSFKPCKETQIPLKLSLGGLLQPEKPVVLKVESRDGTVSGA

Regarding `Cc1c(C(=O)Nc2ccc3ccccc3n2)sc2c(C#N)cccc12`, the pIC50 (commonly the IC50 on a negative log10 scale, so that one unit is a factor of ten) in data set [1] is 6.96.
As to `O=C(Nc1ccc2ccccc2n1)/C(=C/c1ccccc1)c1ccccc1`, the inhibition in the data set filed under Mus musculus [2], in the data set filed under Mus musculus [3], in the data set filed under Mus musculus [4], in the data set listed under Mus musculus [5] and on Phosphodiesterase 7 [6] was under 25% throughout. Also, the negative-log IC50 (pIC50) in [1] is 6.36.
As to `CC(=O)c1ccc(C(C)=O)c2sc(C(=O)Nc3cc(C(C)(C)O)c4ccccc4n3)cc12`, the pIC50 in data set [1] is 7.89.
On to `Cc1c(C(=O)Nc2ccc3ccccc3n2)sc2c(-c3ccncc3)cccc12`, for which, in data set [1], the pIC50 was 8.33. For the same molecule, the inhibition (as a rule, the drop in the measured response relative to a control, in per cent) at 10 µM against hERG (KCNH2) worked out at 36%; at CYP2D6, 45%; at CYP3A4 it was 1%.
For the molecule `Cc1c(C(=O)Nc2ccc3ccccc3n2)sc2c(-c3ccoc3)cccc12`, in [1], the negative logarithm of the IC50 (pIC50) is 6.49.
Still for that read-out and setting: as for `CCc1c(C(=O)Nc2ccc3ccccc3n2)sc2c(-c3ccncc3)cccc12`, the figure is 8.28.
For the molecule `CC(=O)c1cccc2c(C)c(C(=O)Nc3ccc4ccccc4n3)sc12`, the pIC50 was 8.12 in data set [1]; under 5.00 in [7]; under 5.00 in data set [8]; under 5.00 in [9]; under 5.00 in data set [10]. The inhibition at 10 µM amounted to 10% on hERG (KCNH2), 0% on CYP2D6 and 0% against CYP3A4. At Phosphodiesterase 7 [11], the IC50 (commonly the midpoint of a concentration-inhibition curve) is over 10000 nM. In addition, the Ratio IC50 (in data set [12]; in data set [13]; in data set [14]; in data set [15]; in the data set filed under Homo sapiens) was over 1300 throughout.
For the molecule `Cc1c(C(=O)Nc2ccc3ccccc3n2)sc2c(I)cccc12`, in [1], the pIC50 was 6.70.
As to `Cc1c(C(=O)Nc2ccc3ccccc3n2)sc2c(-c3cccnc3)cccc12`, the pIC50 in data set [1] is 6.92.
Consider `O=C(Nc1ccc2ccccc2n1)c1cc2cccc(-c3ccncc3)c2s1`, for which, in [1], the pIC50 is 7.33.
For `Cc1c(C(=O)Nc2ccc3ccccc3n2)sc2c(-c3ccccn3)cccc12`, in data set [1], the pIC50 was 7.21.
As to `Cc1c(C(=O)Nc2ccc3ccccc3n2)sc2c(C(=O)N(C)C)cccc12`, the pIC50 in data set [1] was 7.36.
Take `Cc1c(C(=O)Nc2ccc3ccccc3n2)sc2c(C(N)=O)cccc12`: the pIC50 in data set [1] was 7.64.
Take `CNC(=O)c1cccc2c(C)c(C(=O)Nc3ccc4ccccc4n3)sc12`: in data set [1], the pIC50 is 7.64.
As for `O=C(Nc1cc2cccccc-2n1)/C(=C/c1ccccc1)c1ccccc1`, the inhibition in the data set listed under Mus musculus [2] is 25 to 50%; in the data set listed under Mus musculus [3] it was 25 to 50%; in the data set filed under Mus musculus [4] it was 25 to 50%; in the data set filed under Mus musculus [5] it was 25 to 50%; at Phosphodiesterase 7 [6], under 25%. The pIC50 in [1] was 6.29.
